Target: T1, MCH receptor (Homo sapiens, UniProt Q99705)
T1 construct: expressed in transfected cells; host or cells: CHO cells
Assay: MCH Receptor Binding Assay
Conditions: [125I]-MCH, SPA, membranes from CHO cells expressing the MCH receptor
Description: Membranes from CHO cells expressing the MCH receptor were prepared by lysing cells with 5 mM HEPES for 15 min at 4C. Cell lysates were centrifuged ([…], 15 min) and the pellet was re-suspended in 5 mM HEPES. For each 96-well plate (Microlite, Dynex Technologies), 1 mg of cell membranes were incubated with 10 mg of wheat germ agglutinin SPA beads (Amersham) for 5 min at 4 C in a volume of 10 ml of binding buffer (25 mM HEPES, 10 mM MGCl2, 10 mM NaCl, 5 mM MnCl2, 0.1% BSA). The membrane/bead mixture was centrifuged (1500×g, 3.5 min), the supernatant was aspirated, and the pellet was re-suspended in 10 ml binding buffer. The centrifugation, aspiration and re-suspension were then repeated. The membrane/bead mixture (100 μl) was then added to 96-well plates containing 50 μl of 500 pM [^125I]-MCH (NEN) and […] of the appropriate concentration of compound (4× the desired final concentration). Nonspecific binding was determined by including 1 μM MCH in the binding reaction. The binding reaction was incubated at room temperature for 2 h. Plates were then analyzed in a TOPCOUNT microplate scintillation counter (Packard). Data was analyzed and Ki values were determined using GraphPad Prism.

T1 sequence (Q99705 whole entry): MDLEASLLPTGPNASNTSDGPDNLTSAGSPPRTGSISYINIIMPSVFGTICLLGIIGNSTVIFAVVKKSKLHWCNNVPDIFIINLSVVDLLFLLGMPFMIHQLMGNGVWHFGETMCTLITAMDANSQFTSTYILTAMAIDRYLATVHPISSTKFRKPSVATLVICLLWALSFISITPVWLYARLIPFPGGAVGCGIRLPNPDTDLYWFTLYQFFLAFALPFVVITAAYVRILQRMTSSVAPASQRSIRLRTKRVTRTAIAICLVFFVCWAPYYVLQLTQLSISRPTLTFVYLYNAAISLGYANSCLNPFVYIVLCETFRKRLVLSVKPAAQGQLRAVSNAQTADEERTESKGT

| SMILES | Ki |
| --- | --- |
| N#Cc1cccc(-c2ccc(C3(CCC(=O)Nc4ccc(F)c(Cl)c4)CCN(CC4CC4)CC3)cc2)c1 | 34 nM |
| CN(CC(=O)Nc1ccc(F)c(Cl)c1)C1(c2ccc(-c3cccc(C#N)c3)cc2)CCNCC1 | 4.7 nM |
| N#Cc1cccc(-c2ccc(C3(OCC(=O)Nc4cc(Cl)cc(Cl)c4)CCN(C4CCCC4)CC3)cc2)c1 | 2.2 nM |
